Columns and labels:
3T3-L1 adipocytes = tested on: 3T3-L1 adipocytes; parameters: method as in PMID 10840932; details: cited from earlier work
[1] = Obesity-associated factors in B16F10-isografted HFD C57BL/6J mice (body weight, blood glucose, serum lipids, ELISA); format: in vivo; details: end of experiment, mean ± SD
From the text: C57BL/6J mice were procured from Experimental Animal Facility (EAF) at National Centre for Cell Science (NCCS), Pune, India. High fat diet (24% fat) was purchased from Provimi Animal Nutrition Pvt. Ltd., Bangalore, India, and normal diet (5% fat) was obtained from Amrut Laboratory, Pune, India. The compositions of diets are provided in supplementary data (Additional file 1: Table S1). Diet-induced obesity was developed in the mice by feeding them with high fat diet as described previously. Male C57BL/6J mice (6–8 weeks old) were divided into normal diet (ND) and high fat diet (HFD) group. ND group was fed with normal diet while HFD group was fed with high fat diet supplemented with ground nut and dried coconut for 6 months. Body weight and serum chemistry profile were measured monthly to verify obesity-associated changes. Water and food were provided ad libitum to all the mice. All animal experiments were carried out as per the requirement and guidelines of the Committee for the Purpose of Control and Supervision of Experiments on Animals (CPCSEA), Government of India, and after obtaining permission of the Institutional Animal Ethics Committee (IAEC).
(§1) Blood glucose levels and serum lipids were estimated as described previously. Insulin, leptin, and adiponectin levels in the serum were estimated by mouse-specific respective ELISA kits as described. Resistin, IL-6, and TNF-α levels in the serum were detected by indirect ELISA as described previously.
(§2) To study the impact of diet-induced obesity on the outcome of DTIC therapy in melanoma, we treated B16F10 melanoma isografted obese mice with DTIC purchased from Sigma, USA (80 mg/kg intraperitoneally for five consecutive days as described previously). In addition, to look into the impact of weight loss interventions on the outcome of DTIC therapy in obese mice, mice were administered with orlistat (an antiobesity drug known to inhibit gastrointestinal lipases) and/or shifted from high fat to normal diet followed by DTIC treatment. The detailed experimental plan is illustrated in Fig. 1a. Briefly, obese mice were administered orally with orlistat (10 mg/kg on every alternate day) purchased from Enzo Life Sciences, NY, USA, and/or shifted from high fat diet to normal diet. HFD C57BL/6J mice treated with vehicle or orlistat were termed as HFD-HFD Ctrl and HFD-HFD Orli (N = 11 per each group), respectively, whereas HFD C57BL/6J mice shifted to normal diet and treated with vehicle or orlistat were grouped as HFD-ND Ctrl and HFD-ND Orli (N = 11 per each group), respectively. After 15 days, these mice were injected subcutaneously (s.c.) with B16F10 cells (2 × 10^5) in 100 μl of PBS and monitored daily for the presence of palpable tumors and dimensions were recorded on alternate days. […] Tumor volume was calculated using the formula 0.52 × length × width^2 and was followed up throughout the study.

B16F10 melanoma [2] = assay: B16F10 melanoma isograft in ND C57BL/6J mice: tumor growth and survival
Experimental: Melanoma cells were injected and orlistat treatment was continued. Following tumor formation, all groups of mice were treated with vehicle (acidified water) or DTIC, and tumor volume was followed up in these mice throughout the study as mentioned above. […] At the end of the experiment, mice were sacrificed, tumors were excised, and the samples were immediately preserved at −80 °C until further use. Five mice from each group were followed up for survival studies as mentioned above.

B16F10 melanoma [3] = assay: B16F10 melanoma isograft in HFD (obese) C57BL/6J mice: tumor growth and survival; format: in vivo; details: HFD mice, vs untreated counterparts
Experimental: as §2

[4] = Obesity-associated factors in B16F10-isografted ND C57BL/6J mice; format: in vivo; details: end of experiment
From the text: as §1

SMILES: CCCCCCCCCCC[C@@H](C[C@@H]1OC(=O)[C@H]1CCCCCC)OC(=O)[C@H](CC(C)C)NC=O [orlistat]
- Differentiation of 3T3-L1 adipocytes (3T3-L1 adipocytes): inhibited
- Body weight ([1]; HFD-HFD (continued on HFD), orlistat 10 mg/kg oral alternate days, DTIC 80 mg/kg i.p. 5 days): 26.16 ± 0.71 (p < 0.0001) g
- Blood glucose ([1]; HFD-HFD): 146.3 ± 5.99 (p < 0.0001) mg/dl
- Serum IL-6 ([1]; HFD-HFD): 35.45 ± 2.88 (p < 0.0001) pg/ml
- Serum LDLc ([1]; HFD-HFD): 66.69 ± 3.42 (p < 0.0001) mg/dl
- Serum TG ([1]; HFD-HFD): 66.03 ± 3.39 (p < 0.0001) mg/dl
- Serum TNF-α ([1]; HFD-HFD): 13.78 ± 1.07 (p < 0.0001) pg/ml
- Serum adiponectin ([1]; HFD-HFD): 8204 ± 593 (p < 0.0001) ng/ml
- Serum cholesterol ([1]; HFD-HFD): 95.75 ± 4.91 (p < 0.0001) mg/dl
- Serum free fatty acids ([1]; HFD-HFD): 1.74 ± 0.09 (p < 0.0001) mM/l
- Serum insulin ([1]; HFD-HFD): 0.269 ± 0.01 (p < 0.0001) μg/l
- Serum leptin ([1]; HFD-HFD): 33.74 ± 2.47 (p < 0.0001) ng/ml
- Serum resistin ([1]; HFD-HFD): 1.66 ± 0.08 (p < 0.0001) ng/ml
- Body weight ([1]; HFD-ND (shifted from HFD to normal diet)): 23.1 ± 1.02 (p < 0.0001) g
- Blood glucose ([1]; HFD-ND): 128.83 ± 6.24 (p < 0.0001) mg/dl
- Serum IL-6 ([1]; HFD-ND): 29.25 ± 2.12 (p < 0.0001) pg/ml
- Serum LDLc ([1]; HFD-ND): 63.31 ± 3.13 (p < 0.0001) mg/dl
- Serum TG ([1]; HFD-ND): 60.53 ± 3.15 (p < 0.0001) mg/dl
- Serum TNF-α ([1]; HFD-ND): 11.48 ± 1.12 (p < 0.0001) pg/ml
- Serum adiponectin ([1]; HFD-ND): 9108 ± 550 (p < 0.0001) ng/ml
- Serum cholesterol ([1]; HFD-ND): 88.64 ± 5.17 (p < 0.0001) mg/dl
- Serum free fatty acids ([1]; HFD-ND): 1.66 ± 0.08 (p < 0.0001) mM/l
- Serum insulin ([1]; HFD-ND): 0.2570 ± 0.01 (p < 0.0001) μg/l
- Serum leptin ([1]; HFD-ND): 26.54 ± 1.60 (p < 0.0001) ng/ml
- Serum resistin ([1]; HFD-ND): 1.19 ± 0.06 (p < 0.0001) ng/ml
- Survival of tumor-bearing mice (B16F10 melanoma [2]): did not influence
- Tumor progression (tumor volume and weight) (B16F10 melanoma [2]; DTIC 80 mg/kg i.p. 5 days, orlistat 10 mg/kg oral alternate days): unaltered
- Tumor growth (B16F10 melanoma [3]): restricted tumor growth
- Blood glucose ([4]; mean): 161.83 mg/dL
- Serum IL-6 ([4]; mean): 19.99 pg/mL
- Serum LDLc ([4]; mean): 51.26 mg/dL
- Serum TG ([4]; mean): 54.93 mg/dL
- Serum TNF-D ([4]; mean): 11.78 pg/mL
- Serum adiponectin ([4]; mean): 13803 ng/mL
- Serum cholesterol ([4]; mean): 81.36 mg/dL
- Serum free fatty acids ([4]; mean): 0.89 mM/L
- Serum insulin ([4]; mean): 0.116 µg/L
- Serum leptin ([4]; mean): 15.43 ng/mL
- Serum resistin ([4]; mean): 0.98 ng/mL
- Body weight ([4]; mean (SD on next line)): 21.50 g
